Assay results published in patent publication US20220289708A1, “SUBSTITUTED N-PHENYL URACILS, SALTS THEREOF AND THEIR USE AS HERBICIDAL AGENTS” (Bayer Aktiengesellschaft, priority 2019, published 2022).
Each block holds one compound with its values, some of them ahead of it.

Tests used:
Type in all cases: in vivo
Avena fatua [1] = experiment: Pre-emergence herbicidal action; settings: application rate 80 g/ha
Procedure, shortened: (§1)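 Percentages are visual ratings against untreated controls, where 100% means dead plants and 0% means no difference. Compounds were applied at 80 g/ha or lower to the soil over freshly sown seeds, then pots stayed in the greenhouse about 3 weeks.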

Echinochloa crus-galli [2] = experiment: Pre-emergence herbicidal action
Procedure, shortened: as §1

Polygonum convolvulus [3] = experiment: Pre-emergence herbicidal action; settings: application rate 20 g/ha
Procedure, shortened: as §1

Viola tricolor [4] = experiment: Pre-emergence herbicidal action; settings: application rate 20 g/ha
Procedure, shortened: as §1

Alopecurus myosuroides [5] = experiment: Pre-emergence herbicidal action
Procedure, shortened: as §1

Digitaria sanguinalis [6] = experiment: Pre-emergence herbicidal action; settings: application rate 20 g/ha
Procedure, shortened: as §1

Setaria viridis [7] = experiment: Pre-emergence herbicidal action; settings: application rate 20 g/ha
Procedure, shortened: as §1

Amaranthus retroflexus [8] = experiment: Pre-emergence herbicidal action; settings: application rate 20 g/ha
Procedure, shortened: as §1

Veronica persica [9] = experiment: Pre-emergence herbicidal action; settings: application rate 20 g/ha
Procedure, shortened: as §1

Lolium rigidum = experiment: Pre-emergence herbicidal action; settings: application rate 80 g/ha
Procedure, shortened: as §1

Abutilon theophrasti [10] = experiment: Pre-emergence herbicidal action; settings: application rate 20 g/ha
Procedure, shortened: as §1

Matricaria inodora [11] = experiment: Pre-emergence herbicidal action; settings: application rate 20 g/ha
Procedure, shortened: as §1

Pharbitis purpurea [12] = experiment: Pre-emergence herbicidal action; settings: application rate 20 g/ha
Procedure, shortened: as §1

Triticum aestivum [13] = experiment: Pre-emergence crop plant compatibility; settings: application rate 20 g/ha
Text: (§2) B. Pre-Emergence Herbicidal Action and Crop Plant Compatibility
(§3) Seeds of monocotyledonous and dicotyledonous weed plants and crop plants were placed in plastic or organic planting pots and covered with soil. The compounds of the invention, formulated in the form of wettable powders (WP) or as emulsion concentrates (EC), were then applied to the surface of the covering soil as aqueous suspension or emulsion with addition of 0.5% additive at a water application rate equivalent to 600 l/ha (converted). After the treatment, the pots were placed in a greenhouse and kept under good growth conditions for the test plants. After about 3 weeks, the effect of the preparations was scored visually in comparison with untreated controls as percentages. For example, 100% activity=the plants have died, 0% activity=like control plants.
(§4) Tables B14 to B16 below show the crop plant compatibilities of selected compounds of the general formula (I) according to Tables I.1 to I.36 at an application rate corresponding to 20 g/ha, which were obtained in experiments according to the experimental procedure mentioned above. Here, the observed effects on selected crop plants are stated in comparison to the untreated controls (values in %).

Triticum aestivum [14] = experiment: Post-emergence crop plant compatibility; settings: application rate 5 g/ha
Procedure, shortened: (§5)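 Greenhouse crop plants in sandy loam sprayed at one-leaf stage (2-3 weeks after sowing) with WP or EC formulations plus 0.5% additive, 600 l/ha water, at 5 g/ha or 20 g/ha. Damage scored visually after about 3 weeks as % versus untreated controls (100% = plants dead).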

Amaranthus retroflexus [15] = experiment: Post-emergence herbicidal action; settings: application rate 5 g/ha, rated visually after about 3 weeks vs untreated controls
Procedure, shortened: (§6)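 Percent activity, judged by eye about 3 weeks after treatment relative to untreated plants, ranges from 0% (as control) to 100% (plants dead). Foliar application at 20 g/ha and less was made at the one-leaf stage using a 600 l/ha aqueous spray containing 0.5% additive.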

Veronica persica [16] = experiment: Post-emergence herbicidal action; settings: application rate 5 g/ha
Procedure, shortened: as §6

Abutilon theophrasti [17] = experiment: Post-emergence herbicidal action; settings: application rate 5 g/ha, rated visually after about 3 weeks vs untreated controls
Procedure, shortened: as §6

Zea mays [18] = experiment: Post-emergence crop plant compatibility; settings: application rate 5 g/ha
Procedure, shortened: as §5

Oryza sativa = experiment: Post-emergence crop plant compatibility; settings: application rate 5 g/ha
Procedure, shortened: as §5

Avena fatua [19] = experiment: Post-emergence herbicidal action; settings: application rate 20 g/ha, rated visually after about 3 weeks vs untreated controls
Procedure, shortened: as §6

Echinochloa crus-galli [20] = experiment: Post-emergence herbicidal action; settings: application rate 5 g/ha, rated visually after about 3 weeks vs untreated controls
Procedure, shortened: as §6

Polygonum convolvulus [21] = experiment: Post-emergence herbicidal action; settings: application rate 5 g/ha
Procedure, shortened: as §6

Viola tricolor [22] = experiment: Post-emergence herbicidal action; settings: application rate 5 g/ha
Procedure, shortened: as §6

Alopecurus myosuroides [23] = experiment: Post-emergence herbicidal action; settings: application rate 5 g/ha, rated visually after about 3 weeks vs untreated controls
Procedure, shortened: as §6

Hordeum murinum = experiment: Post-emergence herbicidal action; settings: application rate 20 g/ha
Procedure, shortened: as §6

Digitaria sanguinalis [24] = experiment: Post-emergence herbicidal action; settings: application rate 5 g/ha, rated visually after about 3 weeks vs untreated controls
Procedure, shortened: as §6

Setaria viridis [25] = experiment: Post-emergence herbicidal action; settings: application rate 5 g/ha, rated visually after about 3 weeks vs untreated controls
Procedure, shortened: as §6

Stellaria media = experiment: Post-emergence herbicidal action; settings: application rate 5 g/ha, rated visually after about 3 weeks vs untreated controls
Procedure, shortened: as §6

Matricaria inodora [26] = experiment: Post-emergence herbicidal action; settings: rated visually after about 3 weeks vs untreated controls
Procedure, shortened: as §6

Pharbitis purpurea [27] = experiment: Post-emergence herbicidal action; settings: application rate 5 g/ha, rated visually after about 3 weeks vs untreated controls
Procedure, shortened: as §6

Zea mays [28] = experiment: Pre-emergence crop plant compatibility; settings: application rate 20 g/ha
Text: as §2, §3, §4

Triticum aestivum (efficacy in %) (Triticum aestivum [13]): 20%
Triticum aestivum (efficacy in %) (Triticum aestivum [14]): 0%
SMILES: Cn1c(C(F)(F)F)cc(=O)n(-c2cc(Oc3cccnc3OCC(=O)OCCS(C)(=O)=O)c(Cl)cc2F)c1=O [I.15-166]
Avena fatua (efficacy in %) (Avena fatua [1]): 100%
Echinochloa crus-galli (efficacy in %) (Echinochloa crus-galli [2]; application rate 20 g/ha): 80%
Polygonum convolvulus (efficacy in %) (Polygonum convolvulus [3]): 100%
Viola tricolor (efficacy in %) (Viola tricolor [4]): 100%
Alopecurus myosuroides (efficacy in %) (Alopecurus myosuroides [5]; application rate 20 g/ha): 90%
Digitaria sanguinalis (efficacy in %) (Digitaria sanguinalis [6]): 100%
Setaria viridis (efficacy in %) (Setaria viridis [7]): 100%
Amaranthus retroflexus (efficacy in %) (Amaranthus retroflexus [8]): 100%
Veronica persica (efficacy in %) (Veronica persica [9]): 100%
Lolium rigidum (efficacy in %) (Lolium rigidum): 100%
Abutilon theophrasti (efficacy in %) (Abutilon theophrasti [10]): 100%
Matricaria inodora (efficacy in %) (Matricaria inodora [11]): 100%
Pharbitis purpurea (efficacy in %) (Pharbitis purpurea [12]): 100%
Amaranthus retroflexus (efficacy in %) (Amaranthus retroflexus [15]): 100%
Veronica persica (efficacy in %) (Veronica persica [16]): 100%
Abutilon theophrasti (efficacy in %) (Abutilon theophrasti [17]): 100%

Zea mays (efficacy in %) (Zea mays [18]): 20%
Oryza sativa (efficacy in %) (Oryza sativa): 20%
Triticum aestivum (efficacy in %) (Triticum aestivum [14]): 20%
SMILES: Cn1c(C(F)(F)F)cc(=O)n(-c2cc(Oc3cccnc3OCC(=O)OCC#N)c(Cl)cc2F)c1=O [I.15-176]
Avena fatua (efficacy in %) (Avena fatua [19]): 90%
Echinochloa crus-galli (efficacy in %) (Echinochloa crus-galli [20]): 100%
Polygonum convolvulus (efficacy in %) (Polygonum convolvulus [21]): 100%
Viola tricolor (efficacy in %) (Viola tricolor [22]): 100%
Alopecurus myosuroides (efficacy in %) (Alopecurus myosuroides [23]): 80%
Hordeum murinum (efficacy in %) (Hordeum murinum): 100%
Digitaria sanguinalis (efficacy in %) (Digitaria sanguinalis [24]): 100%
Setaria viridis (efficacy in %) (Setaria viridis [25]): 100%
Amaranthus retroflexus (efficacy in %) (Amaranthus retroflexus [15]): 100%
Stellaria media (efficacy in %) (Stellaria media): 100%
Veronica persica (efficacy in %) (Veronica persica [16]): 90%
Abutilon theophrasti (efficacy in %) (Abutilon theophrasti [17]): 100%
Matricaria inodora (efficacy in %) (Matricaria inodora [26]; application rate 20 g/ha): 100%
Pharbitis purpurea (efficacy in %) (Pharbitis purpurea [27]): 100%

More lines, now with the values behind:

SMILES: Cn1c(C(F)(F)F)cc(=O)n(-c2cc(Oc3cccnc3OCC(=O)OC[Si](C)(C)C)c(Cl)cc2F)c1=O [I.15-201]
Avena fatua (efficacy in %) (Avena fatua [1]): 100%
Echinochloa crus-galli (efficacy in %) (Echinochloa crus-galli [2]; application rate 80 g/ha): 100%
Polygonum convolvulus (efficacy in %) (Polygonum convolvulus [3]): 100%
Viola tricolor (efficacy in %) (Viola tricolor [4]): 100%
Alopecurus myosuroides (efficacy in %) (Alopecurus myosuroides [5]; application rate 80 g/ha): 100%
Digitaria sanguinalis (efficacy in %) (Digitaria sanguinalis [6]): 100%
Setaria viridis (efficacy in %) (Setaria viridis [7]): 100%
Amaranthus retroflexus (efficacy in %) (Amaranthus retroflexus [8]): 100%
Veronica persica (efficacy in %) (Veronica persica [9]): 100%
Lolium rigidum (efficacy in %) (Lolium rigidum): 100%
Abutilon theophrasti (efficacy in %) (Abutilon theophrasti [10]): 100%
Matricaria inodora (efficacy in %) (Matricaria inodora [11]): 100%
Pharbitis purpurea (efficacy in %) (Pharbitis purpurea [12]): 100%
Zea mays (efficacy in %) (Zea mays [28]): 0%
Zea mays (efficacy in %) (Zea mays [18]): 20%
Oryza sativa (efficacy in %) (Oryza sativa): 0%
Echinochloa crus-galli (efficacy in %) (Echinochloa crus-galli [20]): 100%
Digitaria sanguinalis (efficacy in %) (Digitaria sanguinalis [24]): 100%
Amaranthus retroflexus (efficacy in %) (Amaranthus retroflexus [15]): 100%
Veronica persica (efficacy in %) (Veronica persica [16]): 100%
Abutilon theophrasti (efficacy in %) (Abutilon theophrasti [17]): 100%
Pharbitis purpurea (efficacy in %) (Pharbitis purpurea [27]): 100%

SMILES: CC(C#N)COC(=O)COc1ncccc1Oc1cc(-n2c(=O)cc(C(F)(F)F)n(C)c2=O)c(F)cc1Cl (stereo not drawn) [I.15-405]
Avena fatua (efficacy in %) (Avena fatua [1]): 100%
Echinochloa crus-galli (efficacy in %) (Echinochloa crus-galli [2]; application rate 20 g/ha): 80%
Polygonum convolvulus (efficacy in %) (Polygonum convolvulus [3]): 90%
Viola tricolor (efficacy in %) (Viola tricolor [4]): 100%
Alopecurus myosuroides (efficacy in %) (Alopecurus myosuroides [5]; application rate 80 g/ha): 100%
Digitaria sanguinalis (efficacy in %) (Digitaria sanguinalis [6]): 100%
Setaria viridis (efficacy in %) (Setaria viridis [7]): 100%
Amaranthus retroflexus (efficacy in %) (Amaranthus retroflexus [8]): 100%
Veronica persica (efficacy in %) (Veronica persica [9]): 100%
Lolium rigidum (efficacy in %) (Lolium rigidum): 100%
Abutilon theophrasti (efficacy in %) (Abutilon theophrasti [10]): 100%
Matricaria inodora (efficacy in %) (Matricaria inodora [11]): 100%
Pharbitis purpurea (efficacy in %) (Pharbitis purpurea [12]): 100%
Zea mays (efficacy in %) (Zea mays [28]): 0%
Triticum aestivum (efficacy in %) (Triticum aestivum [13]): 20%
Echinochloa crus-galli (efficacy in %) (Echinochloa crus-galli [20]): 100%
Digitaria sanguinalis (efficacy in %) (Digitaria sanguinalis [24]): 100%
Veronica persica (efficacy in %) (Veronica persica [16]): 100%
Matricaria inodora (efficacy in %) (Matricaria inodora [26]; application rate 5 g/ha): 80%
Pharbitis purpurea (efficacy in %) (Pharbitis purpurea [27]): 100%

SMILES: Cn1c(C(F)(F)F)cc(=O)n(-c2cc(Oc3cccnc3OCC(=O)OCC3OCCO3)c(Cl)cc2F)c1=O [I.15-424]
Avena fatua (efficacy in %) (Avena fatua [1]): 100%
Echinochloa crus-galli (efficacy in %) (Echinochloa crus-galli [2]; application rate 20 g/ha): 90%
Polygonum convolvulus (efficacy in %) (Polygonum convolvulus [3]): 100%
Viola tricolor (efficacy in %) (Viola tricolor [4]): 100%
Alopecurus myosuroides (efficacy in %) (Alopecurus myosuroides [5]; application rate 20 g/ha): 80%
Digitaria sanguinalis (efficacy in %) (Digitaria sanguinalis [6]): 100%
Setaria viridis (efficacy in %) (Setaria viridis [7]): 100%
Amaranthus retroflexus (efficacy in %) (Amaranthus retroflexus [8]): 100%
Veronica persica (efficacy in %) (Veronica persica [9]): 100%
Lolium rigidum (efficacy in %) (Lolium rigidum): 100%
Abutilon theophrasti (efficacy in %) (Abutilon theophrasti [10]): 100%
Matricaria inodora (efficacy in %) (Matricaria inodora [11]): 100%
Pharbitis purpurea (efficacy in %) (Pharbitis purpurea [12]): 100%
Triticum aestivum (efficacy in %) (Triticum aestivum [13]): 10%
Avena fatua (efficacy in %) (Avena fatua [19]): 100%
Echinochloa crus-galli (efficacy in %) (Echinochloa crus-galli [20]): 100%
Digitaria sanguinalis (efficacy in %) (Digitaria sanguinalis [24]): 100%
Amaranthus retroflexus (efficacy in %) (Amaranthus retroflexus [15]): 100%
Veronica persica (efficacy in %) (Veronica persica [16]): 100%
Abutilon theophrasti (efficacy in %) (Abutilon theophrasti [17]): 100%
Matricaria inodora (efficacy in %) (Matricaria inodora [26]; application rate 5 g/ha): 100%
Pharbitis purpurea (efficacy in %) (Pharbitis purpurea [27]): 100%
